From patent US4386103A, “Dichloroamino acid derivatives useful as potent germicidal and fungicidal agents” (Merck & Co., Inc., priority 1981, dated 1983)

Assays:
Type in all cases: cell-based
Staphylococcus aureus = experiment: Contact germicidal screen, Staphylococcus aureus ATCC No. 6538
Experimental: (§1) The organisms used in the contact germicidal screen are all maintained as stock cultures on nutrient agar […] 4° C. They are transferred and biochemically diagnosed monthly. The five organisms used are: The media used are: […] Overnight cultures of the test organisms are grown in tryptose phosphate broth. After 15-16 hours, the cultures are centrifuged at […] for 15 minutes, and the supernatant replaced with fresh warm (37° C.) media. After two hours of incubation, the absorbance of the culture at 650 nm is determined and diluted with nutrient broth to 1×10^7 colony forming units per ml (using a previous determined standard curve: colony forming units/ml vs. absorbance at 650). The diluted cultures are maintained at 4°-8° C. throughout the screen. The compounds are weighed into sterile 100 ml volumetric flasks, and immediately before screening dissolved in one of the following buffers: 0.1 M NaOAc pH 4.6 or 0.1 M NaH2 PO4 pH 7.0. If solubility poses a problem, 10-30% methanol is used to effect solution. Two denaturing agents are also tested: […] Horse Serum restored with 100 ml distilled water and 10% Trition×100. When used, 2.5 ml of the denaturing agent is mixed with 2.5 ml of double strength test solution thirty minutes before the bacterial suspension is added. The screen is initiated when 0.2 ml of the bacterial suspension is added to 5.0 ml of the test solution contained in a sterile 25 ml glass stoppered flask. At intervals of 0.5, 2.5, 5.0, 10.0 and 15.0 minutes, a loopful of the inoculated test solution is subcultured into 5 ml of sterile nutrient broth and mixed with a vortex, the high dilution serving to stop the action of the compound. All of the subculture tubes are incubated at 37° C. and checked for signs of growth by turbidity at 1, 3, 5 and 7 days. The earliest subculture time at which no growth is present is considered the endpoint and is recorded as the sterilization time. An aliquot of 0.2 ml of the diluted culture is transferred to 5 ml of buffer to simulate 0.2 ml in 5 ml of test solution. (a) Purity: A loopful of the inoculated buffer is streaked onto nutrient agar to check colony morphology and lack of contaminants. (b) Viability: A loopful of the inoculated buffer is subcultured to 5 ml of nutrient broth as in the screen and incubated at 37° C. for 24 hours. (c) Dilution of the Test Solution: A loopful of the test solution is transferred to a 5 ml tube of nutrient broth, and a loopful of the inoculated buffer is transferred to the same tube of broth. […] (d) Purity of Organisms in the Test Solution: After the 15 minute subculture, a loopful of the inoculated test solution is streaked onto nutrient agar to insure that contamination has not occurred during the screen. (e) lack of Bactericidal Activity of Buffers and Other Solvents: Before a buffer or other solvent is used as a diluent, it is screened against the five organisms to insure that the buffer or solvent has no antibacterial activity itself.

Pseudamonas aeruginosa = experiment: Contact germicidal screen, Pseudamonas aeruginosa ATCC No. 14502
Experimental: as §1

Candida albican = experiment: Contact fungicidal screen, Candida albican; details: 0.1M NaOAc pH 4.6
Experimental: The organisms used in the Contact Fungicidal Screen are a dermatophyte, trychophyton mentagrophytes, frequently associated with athlete's foot; a yeast, Candida albican, causative agent of thrush and vaginitis; a phycomycete, Rhizopus oryzae, commonly known as black bread mold; an ascomycete, Aspergillus fumagatis, found in chicken droppings and causing lung infections; and another dermatophyte, Microsporum canis, which causes ringworm. These organisms are maintained as stock cultures at 4° C. on agar slants of the following composition: dextrose 2%, Neopeptone (Difco) 1%, agar 2%. Fluid medium of the same nutrient composition (without agar) was used to test the viability of the organisms after exposure to the fungicide. This medium is also known as Sabouraud's medium.
The Candida albican is grown in Sabouraud's liquid medium at 25°-30° C. for three days. At the end of the incubation period the cell suspension is centrifuged at 200 G and washed with sterile physiological saline (0.85% NaCl). The density of the cell suspension is determined by counting in a hemacytometer. The suspension is stored a 4° C. until it is used, at which time it is diluted with sterile physiological saline to a density of 5×10^6 cells per ml.
The compounds are weighed into heat sterilized 100 ml volumetric flasks and immediately before screening dissolved in 0.1 M NaOAc pH 4.6 buffer (test solutions).
The Aspergillus, Candida, Microsporum and Rhizopus species are screened in a slightly different manner. Basically, the procedure for the Contact Germicidal Efficiency Screen is utilized. After the test solutions are made up, 5 ml aliquots are pipetted into heat sterilized 25 ml glass stoppered erlenmeyer flasks. The screen is initiated when 0.5 ml of the 5×10^6 cell (spore) per ml suspension is added to the flask containing 5 ml of the test solution. At intervals of 0.5, 2.5, 5.0, 10.0 and 15.0 minutes, a 4 mm loopful of the inoculated test solution is subcultured into 7 mL of sterile fluid Sabouraud's medium and mixed on a vortex, the high dilution serving to stop the action of the compound. The subculture tubes are incubated at 25°-30° C. for ten days with daily observation for mycelial growth. The earliest subculture time at which no growth is present is considered the endpoint and is recorded as the sterilization time.
To insure the viability of the culture, a 0.5 ml aliquot of the 5×10^6 cells (spores) per ml suspension is transferred to 5 ml of the pH 4.6 buffer. A loopful of the inoculated buffer is then subcultured to 7 ml of fluid Sabouraud's medium and incubated at 25°-30° C. for ten days. To insure that the dilution of the test solution into the subculture medium does stop the action, a loopful of the test solution and a loopful of the inoculated buffer are transferred into the same subculture tube. This tube is also incubated at 25°-30° C. for ten days.

[1] = 10.0+ PPM, 0.1M NaOAc pH 4.6, screened simultaneously with four other compounds
[2] = 300 PPM with 50% Horse Serum, 0.1M NaOAc pH 4.6
[3] = 300 PPM with 50% Triton X100, 0.1M NaOAc pH 4.6
[4] = 308.0 PPM, Triton X100 (10% solution):pH 4.6 buffer 1:1
[5] = 308.0 PPM, horse serum:pH 4.6 buffer 1:1
[6] = 1000 PPM with 50% Horse Serum, 0.1M NaOAc pH 4.6
[7] = 1000.0 PPM, horse serum:pH 4.6 buffer 1:1
[8] = 1012.3 PPM, 0.1M NaH2PO4 pH 7.0
[9] = 338.7 PPM, horse serum:pH 4.6 buffer 1:1
[10] = 1024.0 PPM, horse serum:pH 4.6 buffer 1:1
[11] = 1070.3 PPM, 0.1M NaH2PO4 pH 7.0

SMILES | Sterilization Time (Staphylococcus aureus; [1]) [min] | Sterilization Time (summary) (Staphylococcus aureus; 10 PPM, 0.1M NaOAc pH 4.6) [min] | Sterilization Time (summary) (Staphylococcus aureus; 100 PPM, 0.1M NaOAc pH 4.6) [min] | Sterilization Time (summary) (Staphylococcus aureus; [2]) [min] | Sterilization Time (summary) (Staphylococcus aureus; [3]) [min] | Sterilization Time (Staphylococcus aureus; [4]) [min] | Sterilization Time (summary) (Staphylococcus aureus; [6]) [min] | Sterilization Time (summary) (Staphylococcus aureus; 1000 PPM, 0.1M NaOAc pH 4.6) [min] | Sterilization Time (Pseudamonas aeruginosa; [1]) [min] | Sterilization Time (summary) (Pseudamonas aeruginosa; 10 PPM, 0.1M NaOAc pH 4.6) [min] | Sterilization Time (summary) (Pseudamonas aeruginosa; 100 PPM, 0.1M NaOAc pH 4.6) [min] | Sterilization Time (summary) (Pseudamonas aeruginosa; [2]) [min] | Sterilization Time (summary) (Pseudamonas aeruginosa; [3]) [min] | Sterilization Time (Pseudamonas aeruginosa; [4]) [min] | Sterilization Time (summary) (Pseudamonas aeruginosa; [6]) [min] | Sterilization Time (summary) (Pseudamonas aeruginosa; 1000 PPM, 0.1M NaOAc pH 4.6) [min] | Sterilization Time (Candida albican; 10 PPM) [min] | Sterilization Time (Candida albican; 100 PPM) [min] | Sterilization Time (Candida albican; 1000 PPM) [min] | further results
CC(C)(CCC(=O)O)N(Cl)Cl [(III), 4-Dichloroamino-4-methylvaleric acid] | 5.0 | 5.0 | 2.5 | 5.0 | 2.5 | 2.5 | 0.5 | 0.5 | 2.5 | 2.5 | 0.5 | 15 | 2.5 | 2.5 | 5.0 | 0.5 | 15 | 15 | 0.5 | Sterilization Time (Staphylococcus aureus; 9.6 PPM, 0.1M NaOAc pH 4.6): 10.0 min; Sterilization Time (Staphylococcus aureus; 9.7 PPM, 0.1M NaH2PO4 pH 7.0): 15 min; Sterilization Time (Staphylococcus aureus; 102.2 PPM, 0.1M NaOAc pH 4.6): 2.5 min; Sterilization Time (Staphylococcus aureus; 103.5 PPM, 0.1M NaH2PO4 pH 7.0): 15 min; Sterilization Time (Staphylococcus aureus; [5]): 5.0 min; Sterilization Time (Staphylococcus aureus; [7]): 0.5 min; Sterilization Time (Staphylococcus aureus; 1007.7 PPM, 0.1M NaOAc pH 4.6): 0.5 min; Sterilization Time (Staphylococcus aureus; [8]): 5.0 min; Sterilization Time (Pseudamonas aeruginosa; 9.6 PPM, 0.1M NaOAc pH 4.6): 5.0 min; Sterilization Time (Pseudamonas aeruginosa; 9.7 PPM, 0.1M NaH2PO4 pH 7.0): 15 min; Sterilization Time (Pseudamonas aeruginosa; 102.2 PPM, 0.1M NaOAc pH 4.6): 0.5 min; Sterilization Time (Pseudamonas aeruginosa; 103.5 PPM, 0.1M NaH2PO4 pH 7.0): 15 min; Sterilization Time (Pseudamonas aeruginosa; [5]): 15 min; Sterilization Time (Pseudamonas aeruginosa; [7]): 5.0 min; Sterilization Time (Pseudamonas aeruginosa; 1007.7 PPM, 0.1M NaOAc pH 4.6): 0.5 min; Sterilization Time (Pseudamonas aeruginosa; [8]): 5.0 min
CC(C)(COC(=O)CCC(=O)O)N(Cl)Cl [(IV), 2-Dichloroamino-2-methylpropylhemisuccinate] | 15 | 15 | 2.5 | 15.0 | 2.5 | 2.5 | 2.5 | 0.5 | 5.0 | 5.0 | 2.5 | 15 | 2.5 | 2.5 | 10.0 | 0.5 | 15 | 15 | 2.5 | Sterilization Time (Staphylococcus aureus; 8.6 PPM, 0.1M NaOAc pH 4.6): 15.0 min; Sterilization Time (Staphylococcus aureus; 9.8 PPM, 0.1M NaH2PO4 pH 7.0): 15 min; Sterilization Time (Staphylococcus aureus; 106.2 PPM, 0.1M NaOAc pH 4.6): 2.5 min; Sterilization Time (Staphylococcus aureus; 149.7 PPM, 0.1M NaH2PO4 pH 7.0): 10.0 min; Sterilization Time (Staphylococcus aureus; [9]): 15.0 min; Sterilization Time (Staphylococcus aureus; 1008.0 PPM, 0.1M NaOAc pH 4.6): 0.5 min; Sterilization Time (Staphylococcus aureus; [10]): 2.5 min; Sterilization Time (Staphylococcus aureus; [11]): 10.0 min; Sterilization Time (Pseudamonas aeruginosa; 8.6 PPM, 0.1M NaOAc pH 4.6): 10.0 min; Sterilization Time (Pseudamonas aeruginosa; 9.8 PPM, 0.1M NaH2PO4 pH 7.0): 15 min; Sterilization Time (Pseudamonas aeruginosa; 106.2 PPM, 0.1M NaOAc pH 4.6): 2.5 min; Sterilization Time (Pseudamonas aeruginosa; 149.7 PPM, 0.1M NaH2PO4 pH 7.0): 15 min; Sterilization Time (Pseudamonas aeruginosa; [9]): 15 min; Sterilization Time (Pseudamonas aeruginosa; 1008.0 PPM, 0.1M NaOAc pH 4.6): 0.5 min; Sterilization Time (Pseudamonas aeruginosa; [10]): 10.0 min; Sterilization Time (Pseudamonas aeruginosa; [11]): 15 min
